Here are results for one compound from article PMC12381781, “Structural and functional insights into the selective inhibition of mutant tau aggregation by purpurin and oleocanthal in frontotemporal dementia” (Protein Science : A Publication of the Protein Society, 2025).

Structures are written as SMILES.

In this assay the target is T1, R2R3 (WT) tau peptide (Homo sapiens, UniProt P10636).
T1 construct: Peptides spanning R2R3—including PHF6 and PHF6*; purchased ProteoGenix (Schiltigheim, France); host or cells: chemical synthesis (custom peptide)
T1 sequence (P10636 592-653 limits assumed): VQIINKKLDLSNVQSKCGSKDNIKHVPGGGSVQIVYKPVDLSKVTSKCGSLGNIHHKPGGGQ
Description: SPR titration cycle kinetics, immobilized R2R3 (WT) peptide. In kind it is binding. The method, then: SPR experiments were conducted using the Sierra® SPR‐24 Pro system (Bruker Daltonics, Bremen, Germany), featuring a gold‐coated microfluidic array (24 detection spots, 3 × 8 format). Data acquisition and kinetic analysis were performed using SPR Analyzer 4 software.
All experiments were conducted at 25°C using PBS (pH 7.4) supplemented with 0.05% Tween‐20 and 5% DMSO as the running buffer to ensure assay reproducibility. Assay components, including 96‐well microtiter plates (Part # 1862984; Burker) and Microplate and Reservoir Sealer (Part #1862985; Burker), were used for sample handling and were compatible with the Sierra SPR®‐24 Pro system (Bruker Daltonics, Billerica, MA, USA).
WT and mutant (P301L, V287I, and N279K) tau peptides were dissolved in 10 mM sodium acetate buffer (pH 5.0; Burker) and immobilized onto High‐Capacity Amine Sensor Surfaces (Part #1862614; Bruker) using the Amine Coupling Kit (Part #1862634; Bruker). The sensor surface was preconditioned with a Surface Elution Buffer (Part #1862656; Bruker Daltonics) and 0.1M HCl to remove contaminants and improve binding specificity. […]
PUR and OLC were prepared in PBS (pH 7.4) supplemented with 0.05% Tween‐20 and 5% DMSO. Compound interactions with tau peptides were pre‐screened using a concentration range of 1–100 μM, and subsequent binding kinetics were evaluated at optimized concentrations. […] Each analyte was sequentially injected, and association and dissociation phases were monitored to determine kinetic parameters.
SPR binding kinetics were assessed using the titration cycle kinetics (TCK) assay, which included consecutive association phases followed by a single dissociation phase. […] A reference blank injection was included for double referencing, and a single dissociation curve was recorded for the highest analyte concentration.
Sensorgrams were analyzed using the Kinetic Titration model, which was integrated into the global kinetic fitting model of the SPR Analyzer 4 software. […]

For orientation: koff means the first-order rate constant of dissociation. The low end stands for slow dissociation, the high end for fast dissociation. As a reminder, the kon is a measure of how fast the partners come together. High values mean fast association, low ones slow association. In general, Kd refers to a measure of binding affinity in units of concentration. Higher therefore signals weaker binding. Under “R2R3 WT”, `O=C1c2ccccc2C(=O)c2c(O)c(O)cc(O)c21` [PUR, purpurin] returned a koff of 0.000265 s⁻¹ and a kon of 61 M⁻¹ s⁻¹. The same compound displayed a Kd (R2R3 WT peptide immobilized, 25°C, PBS pH 7.4) of 4.35 µM.
